In ChEMBL document CHEMBL2440076, “New triarylpyrazoles as broad-spectrum anticancer agents: design, synthesis, and biological evaluation” (Eur J Med Chem, 2013):

Legend:
PC-3 = assay: Growth inhibition of human PC3 cells assessed as cell growth at 10 uM after 48 hrs by sulforhodamine B assay; assay type: functional; conditions: PC-3, 48 h, read-out: Activity
SW-620 = assay: Growth inhibition of human SW620 cells after 48 hrs by sulforhodamine B assay; assay type: functional; conditions: SW-620, 48 h
HT-29 [1] = assay: Growth inhibition of human HT-29 cells after 48 hrs by sulforhodamine B assay; assay type: functional; conditions: HT-29, 48 h
[2] = Growth inhibition of human HCC2998 cells after 48 hrs by sulforhodamine B assay; assay type: functional; conditions: HCC 2998, 48 h
NCI-H460 = assay: Growth inhibition of human NCI-H460 cells after 48 hrs by sulforhodamine B assay; assay type: functional; conditions: NCI-H460, 48 h
NCI-H226 [3] = assay: Growth inhibition of human NCI-H226 cells after 48 hrs by sulforhodamine B assay; assay type: functional; conditions: NCI-H226, 48 h
HOP-92 = assay: Growth inhibition of human HOP92 cells after 48 hrs by sulforhodamine B assay; assay type: functional, cell-based; conditions: HOP-92, 48 h
A549 [4] = assay: Growth inhibition of human A549/ATCC cells after 48 hrs by sulforhodamine B assay; assay type: functional; conditions: A549, 48 h
786-0 = assay: Growth inhibition of human 786-0 cells assessed as cell growth at 10 uM after 48 hrs by sulforhodamine B assay; assay type: functional; conditions: 786-0, 48 h, read-out: Activity
SK-OV-3 = assay: Growth inhibition of human SKOV3 cells assessed as cell growth at 10 uM after 48 hrs by sulforhodamine B assay; assay type: functional; conditions: SK-OV-3, 48 h, read-out: Activity
UACC-257 = assay: Growth inhibition of human UACC257 cells assessed as cell growth at 10 uM after 48 hrs by sulforhodamine B assay; assay type: functional; conditions: UACC-257, 48 h, read-out: Activity
SK-MEL-28 = assay: Growth inhibition of human SK-MEL-28 cells assessed as cell growth at 10 uM after 48 hrs by sulforhodamine B assay; assay type: functional; conditions: SK-MEL-28, 48 h, read-out: Activity
U-251 [5] = assay: Growth inhibition of human U251 cells assessed as cell growth at 10 uM after 48 hrs by sulforhodamine B assay; assay type: functional; conditions: U-251, 48 h, read-out: Activity
SNB-19 = assay: Growth inhibition of human SNB19 cells assessed as cell growth at 10 uM after 48 hrs by sulforhodamine B assay; assay type: functional; conditions: SNB-19, 48 h, read-out: Activity
HT-29 [6] = assay: Growth inhibition of human HT-29 cells assessed as cell growth at 10 uM after 48 hrs by sulforhodamine B assay; assay type: functional; conditions: HT-29, 48 h, read-out: Activity
HCT-116 = assay: Growth inhibition of human HCT116 cells assessed as cell growth at 10 uM after 48 hrs by sulforhodamine B assay; assay type: functional; conditions: HCT-116, 48 h, read-out: Activity
NCI-H23 = assay: Growth inhibition of human NCI-H23 cells assessed as cell growth at 10 uM after 48 hrs by sulforhodamine B assay; assay type: functional; conditions: NCI-H23, 48 h, read-out: Activity
NCI-H226 [7] = assay: Growth inhibition of human NCI-H226 cells assessed as cell growth at 10 uM after 48 hrs by sulforhodamine B assay; assay type: functional; conditions: NCI-H226, 48 h, read-out: Activity
MDA-MB-468 = assay: Growth inhibition of human MDA-MB-468 cells after 48 hrs by sulforhodamine B assay; assay type: functional, cell-based; conditions: MDA-MB-468, 48 h
T47D = assay: Growth inhibition of human T47D cells after 48 hrs by sulforhodamine B assay; assay type: functional
MCF7 = assay: Growth inhibition of human MCF7 cells after 48 hrs by sulforhodamine B assay; assay type: functional; conditions: MCF7, 48 h
A498 = assay: Growth inhibition of human A498 cells after 48 hrs by sulforhodamine B assay; assay type: functional, cell-based; conditions: A498, 48 h
ACHN = assay: Growth inhibition of human ACHN cells after 48 hrs by sulforhodamine B assay; assay type: functional
[8] = Growth inhibition of human NCI-ADR-RES cells after 48 hrs by sulforhodamine B assay; assay type: functional
OVCAR-3 = assay: Growth inhibition of human OVCAR3 cells after 48 hrs by sulforhodamine B assay; assay type: functional, cell-based; conditions: OVCAR-3, 48 h
IGROV-1 = assay: Growth inhibition of human IGROV1 cells after 48 hrs by sulforhodamine B assay; assay type: functional; conditions: IGROV-1, 48 h
SNB-75 = assay: Growth inhibition of human SNB75 cells after 48 hrs by sulforhodamine B assay; assay type: functional; conditions: SNB-75, 48 h
U-251 [9] = assay: Growth inhibition of human U251 cells after 48 hrs by sulforhodamine B assay; assay type: functional; conditions: U-251, 48 h
SF-539 = assay: Growth inhibition of human SF539 cells after 48 hrs by sulforhodamine B assay; assay type: functional; conditions: SF-539, 48 h
SF-295 = assay: Growth inhibition of human SF295 cells after 48 hrs by sulforhodamine B assay; assay type: functional, cell-based; conditions: SF-295, 48 h
HOP-62 = assay: Growth inhibition of human HOP62 cells assessed as cell growth at 10 uM after 48 hrs by sulforhodamine B assay; assay type: functional; conditions: HOP-62, 48 h, read-out: Activity
A549 [10] = assay: Growth inhibition of human A549/ATCC cells assessed as cell growth at 10 uM after 48 hrs by sulforhodamine B assay; assay type: functional; conditions: A549, 48 h, read-out: Activity
HL-60(TB) = assay: Growth inhibition of human HL-60(TB) cells assessed as cell growth at 10 uM after 48 hrs by sulforhodamine B assay; assay type: functional; conditions: HL-60, 48 h, read-out: Activity
[11] = read-out: LC50 (the source's name)

O=C(Nc1cccc(-n2cc(-c3ccncc3)c(-c3ccc(Cl)c(O)c3)n2)c1)Nc1ccc(Cl)c(C(F)(F)F)c1
growth at 10 µM (PC-3): -10.4% | GI50 (SW-620): 1150 nM | TGI (SW-620): 4160 nM | CC50 (SW-620; [11]): > 32500 nM | GI50 (HT-29 [1]): 1280 nM | TGI (HT-29 [1]): 5730 nM | CC50 (HT-29 [1]; [11]): 22600 nM | GI50 [2]: 1060 nM | TGI [2]: 4120 nM | CC50 [2, 11]: 20700 nM | GI50 (NCI-H460): 1010 nM | LC50 (NCI-H460): > 32500 nM | TGI (NCI-H460): 4000 nM | GI50 (NCI-H226 [3]): 1350 nM | TGI (NCI-H226 [3]): > 32500 nM | CC50 (NCI-H226 [3]; [11]): > 32500 nM | GI50 (HOP-92): 376 nM | IC50 (HOP-92): 380 nM | LC50 (HOP-92): 13500 nM | TGI (HOP-92): 1460 nM | GI50 (A549 [4]): 927 nM | LC50 (concentration killing 50% of starting cells) (A549 [4]): > 32500 nM | TGI (A549 [4]): 5090 nM | growth at 10 µM (786-0): 4.7% | growth at 10 µM (SK-OV-3): 7.47% | growth at 10 µM (UACC-257): -54% | growth at 10 µM (SK-MEL-28): -31.5% | growth at 10 µM (U-251 [5]): -70.4% | growth at 10 µM (SNB-19): -28.8% | growth at 10 µM (HT-29 [6]): -6.5% | growth at 10 µM (HCT-116): -51% | growth at 10 µM (NCI-H23): -25.8% | growth at 10 µM (NCI-H226 [7]): 3.43% | GI50 (MDA-MB-468): 541 nM | IC50 (MDA-MB-468): 540 nM | TGI (MDA-MB-468): 1750 nM | CC50 (MDA-MB-468; [11]): > 32500 nM | GI50 (T47D): 1120 nM | TGI (T47D): > 32500 nM | CC50 (T47D; [11]): > 32500 nM | GI50 (MCF7): 663 nM | LC50 (MCF7): > 32500 nM | TGI (MCF7): > 32500 nM | GI50 (A498): 1400 nM | IC50 (A498): 1400 nM | TGI (A498): 6900 nM | CC50 (A498; [11]): > 32500 nM | GI50 (ACHN): 913 nM | TGI (ACHN): > 32500 nM | CC50 (ACHN; [11]): > 32500 nM | GI50 [8]: 844 nM | TGI [8]: 2750 nM | CC50 [8, 11]: > 32500 nM | GI50 (OVCAR-3): 830 nM | IC50 (OVCAR-3): 830 nM | TGI (OVCAR-3): 2090 nM | CC50 (OVCAR-3; [11]): > 32500 nM | GI50 (IGROV-1): 715 nM | LC50 (concentration killing 50% of cells) (IGROV-1): > 32500 nM | TGI (IGROV-1): 2220 nM | GI50 (SNB-75): 678 nM | LC50 (lethal concentration, 50% net cell kill) (SNB-75): > 32500 nM | TGI (SNB-75): 3200 nM | GI50 (U-251 [9]): 548 nM | LC50 (concentration killing 50% of cells) (U-251 [9]): 2740 nM | TGI (U-251 [9]): 1230 nM | GI50 (SF-539): 782 nM | LC50 (concentration killing 50% of cells) (SF-539): > 32500 nM | TGI (SF-539): 2390 nM | GI50 (SF-295): 740 nM | IC50 (SF-295): 740 nM | TGI (SF-295): 2060 nM | CC50 (SF-295; [11]): > 32500 nM | growth at 10 µM (HOP-62): -17% | growth at 10 µM (A549 [10]): -21.3% | growth at 10 µM (HL-60(TB)): -11.2%
